Source: paper PMC6393351, “Linking Terpene Synthases to Sesquiterpene Metabolism in Grapevine Flowers” (Frontiers in Plant Science, 2019)
Substitutions are numbered along the chain they refer to.

Columns and labels:
Assay in all cases: in vivo yeast expression, HS-SPME-GC-MS of volatiles
Format in all cases: cell-based
Details in all cases: endogenous FPP of engineered yeast GT051, not added; pH 6, 5 mM Mg2+, 30 °C, 16 h
[1] = molecular target: T1, VvivMATPS10 (Vitis vinifera, UniProt A0A482AL43)
T1 construct: full-length ORF from flower cDNA; yeast GT051 (GAL1 promoter); also transient expression in N. benthamiana (pEAQ-HT-DEST1)
T1 sequence (A0A482AL43 1-560): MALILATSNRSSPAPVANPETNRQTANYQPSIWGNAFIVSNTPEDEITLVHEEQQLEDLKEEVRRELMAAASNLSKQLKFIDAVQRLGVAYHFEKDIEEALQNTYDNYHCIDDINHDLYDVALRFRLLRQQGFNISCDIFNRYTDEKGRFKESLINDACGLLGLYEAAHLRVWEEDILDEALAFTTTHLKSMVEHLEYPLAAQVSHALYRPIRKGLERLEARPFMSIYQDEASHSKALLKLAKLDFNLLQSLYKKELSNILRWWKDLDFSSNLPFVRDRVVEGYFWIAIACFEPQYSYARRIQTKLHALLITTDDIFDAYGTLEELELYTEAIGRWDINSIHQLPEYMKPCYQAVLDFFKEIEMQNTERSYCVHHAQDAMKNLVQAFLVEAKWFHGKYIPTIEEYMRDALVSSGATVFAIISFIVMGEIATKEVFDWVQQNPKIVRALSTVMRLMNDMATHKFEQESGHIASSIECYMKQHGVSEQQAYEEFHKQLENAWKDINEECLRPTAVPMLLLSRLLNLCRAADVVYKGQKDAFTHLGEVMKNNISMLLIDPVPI

[2] = molecular target: T2, VvivSBTPS01 (Vitis vinifera, UniProt A0A482ALZ4)
T2 construct: full-length ORF from cDNA; expressed in yeast GT051 under GAL1 promoter
T2 sequence (A0A482ALZ4 1-555): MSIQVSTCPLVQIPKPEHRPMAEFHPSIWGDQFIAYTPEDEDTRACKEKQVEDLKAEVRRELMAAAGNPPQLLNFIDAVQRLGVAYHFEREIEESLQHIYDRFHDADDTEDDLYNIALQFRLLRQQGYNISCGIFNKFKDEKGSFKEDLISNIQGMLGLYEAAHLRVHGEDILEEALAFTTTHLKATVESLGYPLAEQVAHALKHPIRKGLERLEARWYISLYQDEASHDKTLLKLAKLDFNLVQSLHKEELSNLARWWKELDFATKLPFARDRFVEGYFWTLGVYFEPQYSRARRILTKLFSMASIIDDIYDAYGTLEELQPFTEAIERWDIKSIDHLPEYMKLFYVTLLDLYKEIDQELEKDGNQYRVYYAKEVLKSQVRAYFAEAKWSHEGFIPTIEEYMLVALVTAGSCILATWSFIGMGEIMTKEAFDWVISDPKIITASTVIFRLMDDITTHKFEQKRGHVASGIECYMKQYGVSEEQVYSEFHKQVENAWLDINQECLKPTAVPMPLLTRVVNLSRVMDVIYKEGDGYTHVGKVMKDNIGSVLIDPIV

[3] = molecular target: T3, VvivMATPS01 (Vitis vinifera, UniProt A0A482ANT9)
T3 construct: full-length ORF from cDNA; expressed in yeast GT051 under GAL1 promoter
T3 sequence (A0A482ANT9 1-555): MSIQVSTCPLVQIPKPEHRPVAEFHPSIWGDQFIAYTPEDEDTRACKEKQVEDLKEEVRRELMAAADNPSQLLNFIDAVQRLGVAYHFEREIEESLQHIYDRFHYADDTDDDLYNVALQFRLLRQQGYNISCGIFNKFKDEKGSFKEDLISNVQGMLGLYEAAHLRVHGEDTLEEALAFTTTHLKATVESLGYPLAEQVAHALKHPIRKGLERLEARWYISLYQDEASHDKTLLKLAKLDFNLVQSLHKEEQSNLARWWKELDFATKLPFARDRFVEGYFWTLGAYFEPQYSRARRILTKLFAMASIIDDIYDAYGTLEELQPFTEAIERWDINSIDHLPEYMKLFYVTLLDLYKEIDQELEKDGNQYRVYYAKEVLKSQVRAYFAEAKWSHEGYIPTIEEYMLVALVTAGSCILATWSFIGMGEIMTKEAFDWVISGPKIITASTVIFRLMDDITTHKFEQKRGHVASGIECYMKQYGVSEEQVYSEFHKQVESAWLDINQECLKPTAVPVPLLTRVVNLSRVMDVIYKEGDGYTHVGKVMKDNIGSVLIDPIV

[4] = molecular target: T4, VvivSBTPS02 (Vitis vinifera, UniProt A0A482AJK8)
T4 construct: full-length ORF from cDNA; expressed in yeast GT051 under GAL1 promoter
T4 sequence (A0A482AJK8 1-555): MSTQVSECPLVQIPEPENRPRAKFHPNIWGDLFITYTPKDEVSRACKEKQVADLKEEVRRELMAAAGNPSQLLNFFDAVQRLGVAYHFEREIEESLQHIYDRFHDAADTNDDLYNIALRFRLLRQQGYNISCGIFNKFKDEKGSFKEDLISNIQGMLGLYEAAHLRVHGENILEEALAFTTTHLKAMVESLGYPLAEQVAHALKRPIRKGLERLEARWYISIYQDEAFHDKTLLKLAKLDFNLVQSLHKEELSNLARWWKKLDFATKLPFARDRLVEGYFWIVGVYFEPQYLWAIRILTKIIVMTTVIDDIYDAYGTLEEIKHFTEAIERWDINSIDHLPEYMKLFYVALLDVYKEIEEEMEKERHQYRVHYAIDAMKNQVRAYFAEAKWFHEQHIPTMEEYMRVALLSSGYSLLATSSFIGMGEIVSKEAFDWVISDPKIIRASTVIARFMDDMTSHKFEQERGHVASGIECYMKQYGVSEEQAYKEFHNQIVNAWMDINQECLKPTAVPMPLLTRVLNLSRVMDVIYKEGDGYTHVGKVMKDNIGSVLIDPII

[5] = molecular target: T5, VvivSHTPS27 (Vitis vinifera, UniProt A0A482AKK8)
T5 construct: full-length ORF from cDNA; expressed in yeast GT051 under GAL1 promoter
T5 sequence (A0A482AKK8 1-557): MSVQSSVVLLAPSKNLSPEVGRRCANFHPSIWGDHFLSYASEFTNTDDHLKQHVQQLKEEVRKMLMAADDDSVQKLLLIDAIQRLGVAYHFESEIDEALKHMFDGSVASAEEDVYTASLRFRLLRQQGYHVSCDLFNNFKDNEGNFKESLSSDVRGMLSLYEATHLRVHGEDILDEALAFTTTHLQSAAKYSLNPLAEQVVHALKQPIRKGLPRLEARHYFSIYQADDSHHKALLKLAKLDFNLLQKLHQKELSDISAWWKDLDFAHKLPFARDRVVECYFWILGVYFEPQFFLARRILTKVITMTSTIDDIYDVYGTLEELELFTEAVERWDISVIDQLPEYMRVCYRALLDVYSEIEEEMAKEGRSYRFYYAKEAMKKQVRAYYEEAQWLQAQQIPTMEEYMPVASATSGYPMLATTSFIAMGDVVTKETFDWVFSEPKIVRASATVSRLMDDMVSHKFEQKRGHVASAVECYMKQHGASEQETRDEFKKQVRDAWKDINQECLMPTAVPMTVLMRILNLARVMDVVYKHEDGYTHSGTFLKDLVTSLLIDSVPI

[6] = molecular target: T6, VvivMATPS28 (Vitis vinifera, UniProt A0A482AJV9)
T6 construct: full-length ORF from cDNA; expressed in yeast GT051 under GAL1 promoter
T6 sequence (A0A482AJV9 1-558): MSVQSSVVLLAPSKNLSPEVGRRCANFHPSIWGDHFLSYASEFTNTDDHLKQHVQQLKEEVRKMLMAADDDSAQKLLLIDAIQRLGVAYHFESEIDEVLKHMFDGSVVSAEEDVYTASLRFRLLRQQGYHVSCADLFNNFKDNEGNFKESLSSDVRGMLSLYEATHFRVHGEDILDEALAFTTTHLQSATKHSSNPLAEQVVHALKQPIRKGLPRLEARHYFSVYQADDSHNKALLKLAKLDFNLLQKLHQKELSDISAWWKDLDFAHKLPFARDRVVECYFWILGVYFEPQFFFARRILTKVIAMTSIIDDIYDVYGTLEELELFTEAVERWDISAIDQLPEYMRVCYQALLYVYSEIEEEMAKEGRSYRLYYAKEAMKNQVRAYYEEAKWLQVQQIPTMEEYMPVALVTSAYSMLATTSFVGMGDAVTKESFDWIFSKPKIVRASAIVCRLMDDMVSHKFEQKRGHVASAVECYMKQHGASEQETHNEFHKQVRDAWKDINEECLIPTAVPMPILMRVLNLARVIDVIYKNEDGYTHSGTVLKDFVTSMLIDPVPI

[7] = molecular target: T7, VvivMATPS27 (Vitis vinifera, UniProt E5GAF4)
T7 construct: full-length ORF from cDNA; expressed in yeast GT051 under GAL1 promoter
T7 sequence (E5GAF4 1-557): T5 sequence (A0A482AKK8 1-557) with F27Y

CC(C)=CCC/C(C)=C/CC/C(C)=C/COP(=O)(O)OP(=O)(O)O [FPP]
in vivo yeast expression, HS-SPME-GC-MS of volatiles [1]: increase the metabolic flux for the FPP terpene precursor | in vivo yeast expression, HS-SPME-GC-MS of volatiles [2]: increase the metabolic flux for the FPP terpene precursor | in vivo yeast expression, HS-SPME-GC-MS of volatiles [3]: increase the metabolic flux for the FPP terpene precursor | in vivo yeast expression, HS-SPME-GC-MS of volatiles [4]: increase the metabolic flux for the FPP terpene precursor | in vivo yeast expression, HS-SPME-GC-MS of volatiles [5]: increase the metabolic flux for the FPP terpene precursor | in vivo yeast expression, HS-SPME-GC-MS of volatiles [6]: increase the metabolic flux for the FPP terpene precursor | in vivo yeast expression, HS-SPME-GC-MS of volatiles [7]: increase the metabolic flux for the FPP terpene precursor
